Test [1] relates to tumor-bearing mice expressing KRAS G12C mutation. As to conditions: WO 2015/054572 and Cell. 172 (3), 578-89, 2018; cited from earlier work.
The subject of a further test is NCI-H358 cells. In words: Growth inhibition activity on KRAS-G12C mutant cell line (NCI-H358) (in vitro). The test is classed as cell-based. As to conditions: Homo sapiens, 72 h, 3-day culture in the presence of the compound, CellTiter-Glo2.0. As for the experimental part:
Test Example 3: A Measurement Test of Growth Inhibition Activity on KRAS-G12C Mutant Cell Line (NCI-H358) (In Vitro) NCI-H358 cells (ATCC, Cat#: CRL-5807), which are a KRAS-G12C mutant human lung cancer cell line, were suspended in a 10% fetal bovine serum-containing RPMI1640 medium (manufactured by Fujifilm Wako Pure Chemical Corporation.). The cell suspension was seeded into each well of a 384-well flat-bottom microplate and cultured in an incubator containing 5% CO2 gas at 37° C. for 1 day. The test compound was dissolved in DMSO and diluted with DMSO to give a concentration 500 times the final concentration. The solution of the test compound in DMSO was diluted with the medium used for suspending cells and added to each well of the cell-culture plate to give a DMSO final concentration of 0.2%, followed by culture in an incubator containing 5% CO2 gas at 37° C. for another 3 days. The cell count after 3-day culture in the presence of the compound was measured using CellTiter-Glo2.0 (manufactured by Promega Corporation) in accordance with the protocol recommended by Promega Corporation. The growth inhibition rate was calculated from the following equation, and the concentration of the test compound at which 50% inhibition was achieved (IC50 (nM)) was determined. […] Growth Inhibition Rate (%)=(C−T)/(C)×100 T: the emission intensity in a well into which a test compound was added. C: the emission intensity in a well into which a test compound was not added.
A general note: In ATP-based viability assays light output follows the ATP content of the culture.

The target in a further test is T1, KRAS G12C (Homo sapiens, UniProt P01116, G12C).
T1 construct: KRAS G12C (amino acid region: 1-169)
Description: Inhibitory activity on the KRAS G12C nucleotide (GDP-GTP) exchange reaction. The class given is biochemical. As to conditions: Bodipy FL GDP-bound KRAS G12C 25 nM; preincubation at 25° C. for 4 hours; SOS1 100 nM, GppNHp 1 μM, reaction for 30 minutes. The method, boiled down:
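Bodipy FL-GDP-loaded KRAS G12C (aa 1-169, 25 nM) preincubated with compound 4 h at 25 °C in pH 7.5 Tris buffer, 5% DMSO; exchange started with SOS1 (aa 564-1049, 100 nM) and 1 μM GppNHp for 30 min. Fluorescence change (ex 485/em 520 nm) normalized to DMSO and no-GppNHp controls; IC50 calculated.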

The next test deals with T2, G12C K-Ras4B (1-169) (Homo sapiens, UniProt P01116, G12C).
T2 construct: G12C K-Ras4B (1-169)
Description: Test of compounds to determine whether they bind to KRASG12C (LC-MS compound binding rate). As to conditions: final compound concentration of 2 μM, 1 μM protein, 25° C. for 2 hours. As for the experimental part:
Test Example 1: A Test of Compounds to Determine Whether they Bind to KRASG12C
Test compounds were prepared in the form of a 10 mM DMSO solution.
Wt K-Ras4B (1-169) and G12C K-Ras4B (1-169) proteins were mixed and diluted with a buffer (1×TBS, 0.1 mM TCEP) to prepare individual 1 μM protein solutions. A 10 mM test compound was diluted tenfold with DMSO to make a 1 mM solution, and then diluted fivefold with DMSO to make a 200 μM solution. The 200 μM solution was further diluted fivefold to make a 40 μM solution. When the final compound concentration was […], 1 μL of a 200 μM test compound was added to 19 μL of a 1 μM protein solution. When the final compound concentration was 2 μM, 1 μL of a 40 μM test compound was added to 19 μL of a 1 μM protein solution. The mixtures were stored in an incubator at 25° C. for 2 hours, and 80 μL of a 1×TBS solution containing 0.2% formic acid was added thereto to end the reaction, followed by LC-MS measurement. LC-MS measurement was performed using Xevo G2-S Q-Tof manufactured by Waters, and reverse-phase chromatography was performed with a desalting column. A mass spectrum of positive ions was obtained by electrospray. For a mass spectrum, a spectrum of a polyvalent ion was collectively converted to a molecular weight by using OpenLynx software by the MaxEnt technique, and a compound binding rate was obtained from the ratio of a signal intensity that corresponds to the molecular weight of a protein to a signal intensity that corresponds to the molecular weight of a compound binding to the protein.
By obtaining the compound binding rate for wt K-Ras4B (1-169) and the compound binding rate for G12C K-Ras4B (1-169) at the same time, information of the selectivity for G12C K-Ras4B (1-169) was obtained at the same time.
The test compounds were measured at their final compound concentration of 2 μM. […] Almost none of the compounds of the disclosure bound to wt K-Ras4B (1-169). The “binding rate” (%) for each of wt K-Ras4B (1-169) and G12C K-Ras4B (1-169) refers to the ratio of the signal intensity of bound forms to the sum of the signal intensity of non-bound forms and the signal intensity of bound forms.

For test [2], the target named is G12C mutant of inactive KRAS (GDP) (Homo sapiens, UniProt P01116, G12C). The settings on record: WO 2014/152588 and Cancer Discov. 6 (3), 316-29, 2016; cited from earlier work.
The test system of test [3] is cancer cells with KRAS G12C mutation. As to conditions: WO 2014/152588 and Cancer Discov. 6 (3), 316-29, 2016; cited from earlier work.

Where a name gives a salt, the structure may show the parent alone.

Regarding `C=CC(=O)N1CCN(c2ncnc3c(F)c(-c4c(O)cccc4F)c(Cl)cc23)CC1` [ARS-1620], the antitumor action entry in test [1] was “exerts antitumor action”.
With `C=CC(=O)N1CC(NC(=O)c2c(Cl)nc(CNc3n[nH]c4cc(Cl)c(C(C)(C)C)cc34)n2[C@H]2CCN(CC(F)F)C2)C1` [Example 115, (S)-N-(1-acryloylazetidin-3-yl)-2-(((5-(tert-butyl)-6-chloro-1H-indazol-3-yl)amino)methyl)-4-chloro-1-(1-(2,2-difluoroethyl)pyrrolidin-3-yl)-1H-imidazole-5-carboxamide], the IC50 in the test on NCI-H358 cells was found to be 0.056 µM; against KRAS G12C, 0.007 µM.
Turning to `C=CC(=O)N1CC(NC(=O)c2c(-c3ccccc3)nc(CNc3n[nH]c4cc(Cl)c(C(C)(C)C)cc34)n2C)C1` [Reference Example 3, N-(1-acryloylazetidin-3-yl)-2-(((5-(tert-butyl)-6-chloro-1H-indazol-3-yl)amino)methyl)-1-methyl-4-phenyl-1H-imidazole-5-carboxamide, reference compound], the “binding rate for G12C K-Ras4B (1-169)” value at G12C K-Ras4B (1-169) is recorded as “E (a binding rate of less than 20% is rated “E.”)”. This molecule also gave a concentration for half-maximal inhibition (IC50) on KRAS G12C above 10 µM.
Turning to `C=CC(=O)N1C[C@@H](NC(=O)c2c(C)nc(CNc3n[nH]c4cc(Cl)c(C(C)(C)C)cc34)n2C)[C@H]1C` (relative stereo) [Example 52, N-((2R *, 3R*)-1-acryloyl-2-methylazetidin-3-yl)-2-(((5-(tert-butyl)-6-chloro-1H-indazol-3-yl)amino)methyl)-1,4-dimethyl-1H-imidazole-5-carboxamide], on G12C K-Ras4B (1-169), the “binding rate for G12C K-Ras4B (1-169)” value is “B (a binding rate of 60% or more and less than 80% is rated “B,”)”. Also, half-maximal inhibition at KRAS G12C (IC50) required 0.038 µM.
`C=CC(=O)N1CC(NC(=O)c2c(C(F)F)nc(CNc3n[nH]c4cc(Cl)c(C(C)(C)C)cc34)n2C2CCN(C(C)C)C2)C1` (stereo not drawn) [Example 93, N-(1-acryloylazetidin-3-yl)-2-(((5-(tert-butyl)-6-chloro-1H-indazol-3-yl)amino)methyl)-4-(difluoromethyl)-1-(1-isopropylpyrrolidin-3-yl)-1H-imidazole-5-carboxamide formate]: the “binding rate for G12C K-Ras4B (1-169)” value at G12C K-Ras4B (1-169) is given as “A (a binding rate of 80% or more is rated “A,”)”. The same molecule yielded an IC50 on KRAS G12C of 0.006 µM.
Turning to `C=CC(=O)N1CC(NC(=O)c2cnc(CNc3n[nH]c4cc(Cl)c(Br)cc34)n2C)C1` [Reference Example 1, N-(1-acryloylazetidin-3-yl)-2-(((5-bromo-6-chloro-1H-indazol-3-yl)amino)methyl)-1-methyl-1H-imidazole-5-carboxamide, reference compound], the “binding rate for G12C K-Ras4B (1-169)” value on G12C K-Ras4B (1-169) was “E (a binding rate of less than 20% is rated “E.”)”. Also, the IC50 in the test with NCI-H358 cells and against KRAS G12C was above 10 µM throughout.
On to `C=CC(=O)N1CC(NC(=O)c2c(Cl)nc(CNc3n[nH]c4cc(Cl)c(C(C)(C)C)cc34)n2[C@@H]2CCN(CC(F)F)C2)C1` [Example 113, (R)-N-(1-acryloylazetidin-3-yl)-2-(((5-(tert-butyl)-6-chloro-1H-indazol-3-yl)amino)methyl)-4-chloro-1-(1-(2,2-difluoroethyl)pyrrolidin-3-yl)-1H-imidazole-5-carboxamide], for which the values for the IC50 with NCI-H358 cells and against KRAS G12C were 0.022 µM and 0.005 µM, respectively.
On to `C=CC(=O)N1CC(N2CCN(C(=O)CNc3cc(C4(C)CC4)c(Cl)cc3O)CC2)C1` [ARS-853], for which the “binding to KRAS G12C” value in test [2] was “binds to the cysteine of the G12C mutant of inactive KRAS (GDP)”. Besides, in test [3], the apoptosis induction entry is “inducing apoptosis”.
Turning to `C=CC(=O)N1CC(NC(=O)c2c(Cl)nc(CNc3n[nH]c4cc(Cl)c(C(C)(C)C)cc34)n2[C@H]2CCN(C(C)C)C2)C1` [Example 116, (S)-N-(1-acryloylazetidin-3-yl)-2-(((5-(tert-butyl)-6-chloro-1H-indazol-3-yl)amino)methyl)-4-chloro-1-(1-isopropylpyrrolidin-3-yl)-1H-imidazole-5-carboxamide], at KRAS G12C, the 50% inhibitory concentration (IC50) came out at 0.008 µM.
Same read-out and setting: then `C=CC(=O)N1C[C@H](NC(=O)c2c(C)nc(CNc3n[nH]c4cc(Cl)c(C(C)(C)C)cc34)n2C)[C@@H](F)C1` [Example 64, N-((3S,4S)-1-acryloyl-4-fluoropyrrolidin-3-yl)-2-(((5-(tert-butyl)-6-chloro-1H-indazol-3-yl)amino)methyl)-1,4-dimethyl-1H-imidazole-5-carboxamide], with 0.013 µM; and `C=CC(=O)N1CC(NC(=O)c2c(Cl)nc(CNc3n[nH]c4cc(Cl)c(C(C)(C)C)cc34)n2C2CCCOC2)C1` (stereo not drawn) [Example 104, N-(1-acryloylazetidin-3-yl)-2-(((5-(tert-butyl)-6-chloro-1H-indazol-3-yl)amino)methyl)-4-chloro-1-(tetrahydro-2H-pyran-3-yl)-1H-imidazole-5-carboxamide], with 0.009 µM; and `C=CC(=O)N1CC(NC(=O)c2c(Br)nc(CNc3n[nH]c4cc(Cl)c(C(C)(C)C)cc34)n2C)C1` [Example 27, N-(1-acryloylazetidin-3-yl)-4-bromo-2-(((5-(tert-butyl)-6-chloro-1H-indazol-3-yl)amino)methyl)-1-methyl-1H-imidazole-5-carboxamide], with 0.008 µM.
On KRAS G12C, `C=CC(=O)N1CC(NC(=O)c2c(Cl)nc(CNc3n[nH]c4cc(Cl)c(C(C)(C)C)cc34)n2C)C1` [Example 29, N-(1-acryloylazetidin-3-yl)-2-(((5-(tert-butyl)-6-chloro-1H-indazol-3-yl)amino)methyl)-4-chloro-1-methyl-1H-imidazole-5-carboxamide] displayed an IC50 of 0.006 µM.
On the same count and under the same terms, in the case of `C=CC(=O)N1CC(NC(=O)c2c(Cl)nc(CNc3n[nH]c4cc(Cl)c(C5(C(F)(F)F)CC5)cc34)n2C(C)C)C1` [Example 44, N-(1-acryloylazetidin-3-yl)-4-chloro-2-(((6-chloro-5-(-(trifluoromethyl)cyclopropyl)-1H-indazol-3-yl)amino)methyl)-1-isopropyl-1H-imidazole-5-carboxamide] it was 0.18 µM.
For the molecule `C=CC(=O)N1CC(NC(=O)c2ccc(CNc3n[nH]c4cc(Cl)c(C(C)(C)C)cc34)o2)C1` [Reference Example 2, N-(1-acryloylazetidin-3-yl)-5-(((5-(tert-butyl)-6-chloro-1H-indazol-3-yl)amino)methyl)furan-2-carboxamide, reference compound], on G12C K-Ras4B (1-169), the “binding rate for G12C K-Ras4B (1-169)” value is recorded as “E (a binding rate of less than 20% is rated “E.”)”. In addition, on KRAS G12C, the half-maximal inhibitory concentration (IC50) is above 10 µM.

As a reminder, the IC50 is the concentration needed to halve the response being measured.

The values are drawn from US20230181536A1, “ANTICANCER COMBINATION THERAPY WITH N-(1-ACRYLOYL-AZETIDIN-3-YL)-2-((1H-INDAZOL-3-YL)AMINO)METHYL)-1H-IMIDAZOLE-5-CARBOXAMIDE INHIBITOR OF KRAS-G12C” (TAIHO PHARMACEUTICAL CO., LTD., priority 2020, published 2023).
